“And” between values parts separate entries of the source, which are not always exact repeats. Equal entries are not always repeated.
Tests used:
[1] = Effect of body weight on MK-6482 exposure (pooled Phase 1 mixed effects model); details: for % Change in AUC (h*ng/mL) per 10 kg increase in body weight / % Change in Cmax (ng/mL) per 10 kg increase in body weight: model accounting for dose, formulation
Description: Linear mixed effect model analyses were performed on the natural log transformed PK parameters from the four pooled Phase 1 studies, separately for AUC and Cmax. The model contained fixed effects of natural log transformed dose, drug formulation (old or new), enzyme phenotype determined from genotype, relevant additional covariates, and a random subject effect. UGT2B17 phenotype was considered as a categorical variable with dummy encoding for each phenotype (intermediate metabolizers (IM), poor metabolizers (PM)) that differed from the extensive metabolizer (EM) category). Similarly, CYP2C19 metabolizer status was considered as a categorical variable with dummy encoding for each phenotype (PM, IM, rapid metabolizers (RM) and ultra-rapid metabolizers (UM)) that differed from the EM category. Relevant covariates were selected under the null hypothesis from the following: disease (healthy vs patient), body weight (in kg), age, gender, and dose-by-body weight and dose-by-formulation interactions. Final models used to generate tables in this Example include log (dose), formulation (old/new), body weight (kg), and enzyme phenotype as variables.
Between- and within-subject random effects were modeled via terms Si and ϵij, respectively, and assumed to be normally distributed.
Presence of an interactive effect was tested using an F-test with Kenward-Roger denominator degrees of freedom for the fixed effects. As a descriptive measure, the effect of body weight on exposure was also calculated separately within each UGT2B17 group using a mixed effects model accounting for log(dose) and formulation only. […] For the overall estimate, model (1) was used.

[2] = cited from earlier work
[3] = Effect of dose and formulation on MK-6482 exposure (pooled Phase 1 mixed effects model); details: human, in vivo
From the text: There are many important differences in patient composition between the trials. To note, MK-6482-001 was a first-in-human dose finding trial studying patients with advanced solid tumors or renal cell carcinoma (RCC), while MK-6482-002,-006, and-007 were PK trials conducted with (predominantly female) healthy volunteers. In addition, study-007 enrolled Japanese subjects based on specific CYP2C19 phenotypes; all other studies enrolled subjects without genotype-based selection criteria. Finally, the protocols differed in terms of belzutifan formulation given to trial subjects: subjects in protocols 001 and 002 were given one formulation of belzutifan, study 006 compared that formulation and a new formulations, enrolling all subjects to receive both the formulations, and study 007 patients only received the new formulation of MK-6482.

[4] = system: UGT2B17 and CYP2C19; assay: Pharmacogenetic analysis of pooled Phase 1 PK: combined UGT2B17 and CYP2C19 phenotype vs double EM; details: model-based estimates
Description: Linear mixed effect model analyses were performed on the natural log transformed PK parameters from the four pooled Phase 1 studies, separately for AUC and Cmax. The model contained fixed effects of natural log transformed dose, drug formulation (old or new), enzyme phenotype determined from genotype, relevant additional covariates, and a random subject effect. UGT2B17 phenotype was considered as a categorical variable with dummy encoding for each phenotype (intermediate metabolizers (IM), poor metabolizers (PM)) that differed from the extensive metabolizer (EM) category). […]
To understand the differences in exposure between different genetic phenotype categories, least square means were computed for each UGT2B17 phenotype, each CYP2C19 phenotype, and for each combination UGT2B17/CYP2C19 phenotype. […] Similar analyses were also conducted separately within each UGT2B17 phenotype group to quantify the difference in exposure between CYP2C19 phenotype groups separately for each UGT2B17 phenotype. […]
The Phase 1 PK endpoints analyzed were AUCo->following single dose (SD) administration and steady state AUCo-, following multiple dose (MD) administration pooled, as well as Cmax following SD administration and steady state Cmax following MD administration pooled. […]

[5] = biological target: T1, UGT2B17 (Homo sapiens, UniProt O75795)
T1 sequence (O75795 24-530): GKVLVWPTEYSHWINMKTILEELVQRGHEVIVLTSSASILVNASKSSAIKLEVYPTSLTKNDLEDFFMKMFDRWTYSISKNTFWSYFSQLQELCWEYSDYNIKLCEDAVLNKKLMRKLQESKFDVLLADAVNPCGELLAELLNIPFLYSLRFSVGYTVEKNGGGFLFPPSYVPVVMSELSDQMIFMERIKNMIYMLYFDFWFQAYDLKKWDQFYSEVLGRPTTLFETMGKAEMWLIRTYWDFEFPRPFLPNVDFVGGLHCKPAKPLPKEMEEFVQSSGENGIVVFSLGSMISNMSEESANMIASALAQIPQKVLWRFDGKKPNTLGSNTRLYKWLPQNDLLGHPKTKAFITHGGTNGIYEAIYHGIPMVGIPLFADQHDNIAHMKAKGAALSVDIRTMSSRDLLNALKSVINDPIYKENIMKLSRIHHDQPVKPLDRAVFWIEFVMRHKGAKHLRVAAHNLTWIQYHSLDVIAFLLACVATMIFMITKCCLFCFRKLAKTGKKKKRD

[6] = dose-escalation cohort, doses up to 160 mg once daily

## CS(=O)(=O)c1ccc(Oc2cc(F)cc(C#N)c2)c2c1[C@H](O)[C@H](F)[C@@H]2F [MK-6482, 3-[(1S,2S, 3R)-2,3-Difluoro-1-hydroxy-7-methylsulfonyl-indan-4-yl]oxy-5-fluoro-benzonitrile]
[1]; 41 kg vs 164 kg, independent of enzyme phenotype
  expected difference in exposure between extremes of body weight: ~2.9 fold
[1]; UGT2B17 EM
  % Change in AUC (h*ng/mL) per 10 kg increase in body weight: −10.9%
  % Change in Cmax (ng/mL) per 10 kg increase in body weight: −6.4%
[1]; UGT2B17 IM
  % Change in AUC (h*ng/mL) per 10 kg increase in body weight: −8.3%
  % Change in Cmax (ng/mL) per 10 kg increase in body weight: −7.8%
[1]; UGT2B17 PM
  % Change in AUC (h*ng/mL) per 10 kg increase in body weight: −15.5%
  % Change in Cmax (ng/mL) per 10 kg increase in body weight: −4.5%
[1]; overall, all subjects
  decrease in AUC for every 10 kg increase in body weight: 9.2 (6.5, 12.0) % and 9.2%
  decrease in Cmax for every 10 kg increase in body weight: 7.0 (4.5, 9.5) %
[2]; [6]
  dose-limiting toxicities: no dose-limiting toxicities occurred
  maximum tolerated dose: not reached
[2]; heavily pre-treated patients with ccRCC
  most common adverse events: anemia and hypoxia
[3]
  effect of dose on Cmax, estimated coefficient of log(dose): 0.90
[4]
  exposure of PMs of both enzymes relative to EMs of both enzymes: over four-fold
[5]
  metabolism (primary pathway and enzyme): metabolized primarily by glucuronidation, catalyzed predominantly by UDP Glucuronosyltransferase Family 2 Member B17 (UGT2B17)
